The values below come from patent US10758534B2 (Vertex Pharmaceuticals Incorporated, priority 2014, dated 2020).

The structures appear in SMILES notation.

In this experiment the target is T1, F508del (Homo sapiens, UniProt P13569, DEL508-508).
T1 construct: expressed in transfected cells
T1 sequence (P13569 with tags, fused parts or gaps DEL508-508): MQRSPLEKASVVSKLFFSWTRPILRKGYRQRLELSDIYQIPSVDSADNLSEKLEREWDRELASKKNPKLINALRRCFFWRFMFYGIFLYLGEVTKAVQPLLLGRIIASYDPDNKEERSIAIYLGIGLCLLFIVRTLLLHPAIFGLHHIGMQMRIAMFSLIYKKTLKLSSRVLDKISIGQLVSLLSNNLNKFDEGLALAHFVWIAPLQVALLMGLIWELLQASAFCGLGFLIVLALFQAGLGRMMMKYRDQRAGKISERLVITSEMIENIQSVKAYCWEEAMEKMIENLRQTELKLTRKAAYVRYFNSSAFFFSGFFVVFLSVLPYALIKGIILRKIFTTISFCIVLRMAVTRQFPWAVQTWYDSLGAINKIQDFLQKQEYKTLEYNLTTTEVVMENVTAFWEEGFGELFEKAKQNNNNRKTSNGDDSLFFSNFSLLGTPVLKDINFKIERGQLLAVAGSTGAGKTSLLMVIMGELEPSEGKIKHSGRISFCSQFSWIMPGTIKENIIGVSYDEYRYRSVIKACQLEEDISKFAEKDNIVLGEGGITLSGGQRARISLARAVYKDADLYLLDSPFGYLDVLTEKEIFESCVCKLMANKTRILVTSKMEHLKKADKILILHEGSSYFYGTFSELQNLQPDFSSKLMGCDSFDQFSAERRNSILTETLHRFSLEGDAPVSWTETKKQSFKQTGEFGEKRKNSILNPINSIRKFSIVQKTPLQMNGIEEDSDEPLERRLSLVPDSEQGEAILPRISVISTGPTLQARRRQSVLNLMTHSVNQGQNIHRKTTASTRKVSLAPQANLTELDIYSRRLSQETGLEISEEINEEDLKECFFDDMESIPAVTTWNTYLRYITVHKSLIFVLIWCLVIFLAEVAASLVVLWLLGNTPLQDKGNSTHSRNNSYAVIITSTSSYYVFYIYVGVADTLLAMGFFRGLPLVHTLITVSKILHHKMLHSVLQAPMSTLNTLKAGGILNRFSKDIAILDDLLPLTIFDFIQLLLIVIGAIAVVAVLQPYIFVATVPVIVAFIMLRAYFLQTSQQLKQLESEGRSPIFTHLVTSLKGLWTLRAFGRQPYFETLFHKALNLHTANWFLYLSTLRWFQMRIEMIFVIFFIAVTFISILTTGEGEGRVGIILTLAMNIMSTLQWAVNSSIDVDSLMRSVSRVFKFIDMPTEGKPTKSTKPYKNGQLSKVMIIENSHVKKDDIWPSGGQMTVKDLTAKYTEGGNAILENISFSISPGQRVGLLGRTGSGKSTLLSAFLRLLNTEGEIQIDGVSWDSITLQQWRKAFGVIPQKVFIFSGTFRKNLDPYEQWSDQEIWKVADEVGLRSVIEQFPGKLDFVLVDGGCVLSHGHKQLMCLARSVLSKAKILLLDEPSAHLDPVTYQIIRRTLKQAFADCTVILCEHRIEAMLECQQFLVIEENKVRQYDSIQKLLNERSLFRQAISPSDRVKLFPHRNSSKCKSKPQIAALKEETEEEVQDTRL
The experiment is described as follows: Protocol 1: membrane potential optical assay (FLIPR III, voltage sensing dye), identification of potentiator compounds. The settings on record: Table 3, compounds of Table 1. Type of experiment: cell-based. Put shortly: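 NIH 3T3 fibroblasts stably expressing F508del were cultured at 27° C for 24 hrs for temperature correction, then treated with compounds or DMSO and loaded with a voltage-sensing redistribution dye. Forskolin added with a Cl⁻ gradient activated the channel; membrane-potential fluorescence on FLIPR III reported increased gating.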
For `CC(C)COc1cc(F)cc(-c2ccc(C(=O)NS(=O)(=O)N3CC4CC4(N)C3)c(N3C[C@@H](C)CC3(C)C)n2)c1` (stereo partly drawn) [Compound 1521, N-[(5-amino-3-azabicyclo[3.1.0]hexan-3-yl)sulfonyl]-6-(3-fluoro-5-isobutoxy-phenyl)-2-[(4S)-2,2,4-trimethylpyrrolidin-1-yl]pyridine-3-carboxamide], the EC30 result is “+++ (“+++” means <3 uM)”.

Consider `CC1CN(c2nc(-c3cc(F)cc(OC(C)C)c3)ccc2C(=O)NS(=O)(=O)c2cccc(N)n2)C(C)(C)C1` (stereo not drawn) [Compound 972, N-[(6-amino-2-pyridyl)sulfonyl]-6-(3-fluoro-5-isopropoxy-phenyl)-2-(2,2,4-trimethylpyrrolidin-1-yl)pyridine-3-carboxamide], for which the EC30 result is “+++ (“+++” means <3 uM)”.

On to `CC[C@H](C)Oc1ncc(-c2ccc(C(=O)NS(=O)(=O)c3cccc(N)n3)c(N3C[C@@H](C)CC3(C)C)n2)cc1C` [Compound 1728, N-[(6-amino-2-pyridyl)sulfonyl]-6-[5-methyl-6-[(1 S)-1-methylpropoxy]-3-pyridyl]-2-[(4S)-2,2,4-trimethylpyrrolidin-1-yl]pyridine-3-carboxamide], for which the EC30 result is listed as “+++ (“+++” means <3 uM)”.

As for `COc1ccccc1-c1ccc(C(=O)NS(=O)(=O)c2cccnc2N)c(N2C[C@@H](C)CC2(C)C)n1` [Compound 1962, N-[(2-amino-3-pyridyl)sulfonyl]-6-(2-methoxyphenyl)-2-[(4S)-2,2,4-trimethylpyrrolidin-1-yl]pyridine-3-carboxamide], the EC30 result is “+++ (“+++” means <3 uM)”.

For `Cc1cc(C)c(Oc2ncc(-c3ccccc3C)cc2C(=O)NS(=O)(=O)c2cccc(N)n2)c(C)c1` [Compound 817, N-[(6-amino-2-pyridyl)sulfonyl]-5-(o-tolyl)-2-(2,4,6-trimethylphenoxy)pyridine-3-carboxamide], the EC30 result is listed as “+++ (“+++” means <3 uM)”.

As for `CC1CN(c2nc(C(C)(C)C)c(C3=CCC4(CC3)OCCO4)cc2C(=O)NS(=O)(=O)c2cccc(N)n2)C(C)(C)C1` (stereo not drawn) [Compound 1459, N-[(6-amino-2-pyridyl)sulfonyl]-6-tert-butyl-5-(1,4-dioxaspiro[4.5]dec-8-en-8-yl)-2-(2,2,4-trimethylpyrrolidin-1-yl)pyridine-3-carboxamide], the EC30 result was “+++ (“+++” means <3 uM)”.

Take `Cc1cc(C)c(Oc2nc(-c3cccc(C(C)C)c3)ccc2C(=O)NS(=O)(=O)c2cccc(N)n2)c(C)c1` [Compound 1016, N-[(6-amino-2-pyridyl)sulfonyl]-6-(3-isopropylphenyl)-2-(2,4,6-trimethylphenoxy)pyridine-3-carboxamide]: the EC30 entry was “+++ (“+++” means <3 uM)”.

Regarding `COc1cncc(-c2ccc(C(=O)NS(=O)(=O)c3cccc(N)n3)c(Oc3c(C)cc(C)cc3C)n2)c1` [Compound 1115, N-[(6-amino-2-pyridyl)sulfonyl]-6-(5-methoxy-3-pyridyl)-2-(2,4,6-trimethylphenoxy)pyridine-3-carboxamide], the EC30 entry is listed as “+ (“+” means greater than 10 uM)”.

With `CCO/C=C/c1cc(C(=O)NS(=O)(=O)c2cccc(N)n2)c(N2C[C@@H](C)CC2(C)C)nc1C(C)(C)C` [Compound 1626, N-[(6-amino-2-pyridyl)sulfonyl]-6-tert-butyl-5-[(E)-2-ethoxyvinyl]-2-[(4S)-2,2,4-trimethylpyrrolidin-1-yl]pyridine-3-carboxamide], the EC30 result was “+++ (“+++” means <3 uM)”.

Take `CCOc1cc(F)cc(-c2ccc(C(=O)NS(=O)(=O)c3cccc(N)n3)c(Oc3c(C)cc(C)cc3C)n2)c1` [Compound 1255, N-[(6-amino-2-pyridyl)sulfonyl]-6-(3-ethoxy-5-fluoro-phenyl)-2-(2,4,6-trimethylphenoxy)pyridine-3-carboxamide]: the EC30 result is given as “+++ (“+++” means <3 uM)”.

Take `Cc1ccc(-c2ccc(C(=O)NS(=O)(=O)N3CC[C@H](N)C3)c(N3C[C@@H](C)CC3(C)C)n2)c(F)c1` [Compound 1967, N-[(3S)-3-aminopyrrolidin-1-yl]sulfonyl-6-(2-fluoro-4-methyl-phenyl)-2-[(4S)-2,2,4-trimethylpyrrolidin-1-yl]pyridine-3-carboxamide]: the EC30 entry was “++ (“++” means between 3 uM and 10 uM)”.

`CCCCCN1CCN(c2cccc(S(=O)(=O)NC(=O)c3cccnc3N3CC(C)CC3(C)C)n2)CC1` (stereo not drawn) [Compound 1985, N—[[6-(4-pentylpiperazin-1-yl)-2-pyridyl]sulfonyl]-2-(2,2,4-trimethylpyrrolidin-1-yl)pyridine-3-carboxamide]: the EC30 entry was “++ (“++” means between 3 uM and 10 uM)”.

As to `CC(C)COc1cc(F)cc(-c2ccc(C(=O)NS(=O)(=O)c3cccc(N)n3)c(OCCCc3cccnc3)n2)c1` [Compound 1691, N-[(6-amino-2-pyridyl)sulfonyl]-6-(3-fluoro-5-isobutoxy-phenyl)-2-[3-(3-pyridyl)propoxy]pyridine-3-carboxamide], the EC30 entry was “++ (“++” means between 3 uM and 10 uM)”.

On to `CC(C)COc1cc(F)cc(-c2ccc(C(=O)NS(=O)(=O)c3cccc(N)n3)c(OC(C)c3ccc(F)cc3)n2)c1` (stereo not drawn) [Compound 867, N-[(6-amino-2-pyridyl)sulfonyl]-6-(3-fluoro-5-isobutoxy-phenyl)-2-[1-(4-fluorophenyl)ethoxy]pyridine-3-carboxamide], for which the EC30 result was “+++ (“+++” means <3 uM)”.

Regarding `COc1ccccc1-c1cnc(N2CC(C)CC2(C)C)c(C(=O)NS(=O)(=O)c2cccc(N)n2)c1` (stereo not drawn) [Compound 1735, N-[(6-amino-2-pyridyl)sulfonyl]-5-(2-methoxyphenyl)-2-(2,2,4-trimethylpyrrolidin-1-yl)pyridine-3-carboxamide], the EC30 entry was “+++ (“+++” means <3 uM)”.

As for `CCCOc1cccc(-c2ccc(C(=O)NS(=O)(=O)c3ccc[nH]c3=O)c(Oc3c(C)cc(C)cc3C)n2)c1Cl` [Compound 955, 6-(2-chloro-3-propoxy-phenyl)-N-[(2-oxo-1H-pyridin-3-yl)sulfonyl]-2-(2,4,6-trimethylphenoxy)pyridine-3-carboxamide], the EC30 entry is “++ (“++” means between 3 uM and 10 uM)”.

For `Cc1ccc(NCC(C)C)nc1-c1ccc(C(=O)NS(=O)(=O)c2cccc(N)n2)c(N2CC(C)CC2(C)C)n1` (stereo not drawn) [Compound 1417, N-[(6-amino-2-pyridyl)sulfonyl]-6-[6-(isobutylamino)-3-methyl-2-pyridyl]-2-(2,2,4-trimethylpyrrolidin-1-yl)pyridine-3-carboxamide], the EC30 result was “++ (“++” means between 3 uM and 10 uM)”.

Consider `CCOCCOCCOc1cc(C)cc(-c2ccc(C(=O)NS(=O)(=O)c3cccc(N)n3)c(N3C[C@@H](C)CC3(C)C)n2)n1` [Compound 1696, N-[(6-amino-2-pyridyl)sulfonyl]-6-[6-[2-(2-ethoxyethoxy)ethoxy]-4-methyl-2-pyridyl]-2-[(4S)-2,2,4-trimethylpyrrolidin-1-yl]pyridine-3-carboxamide], for which the EC30 entry was “+++ (“+++” means <3 uM)”.

As to `Cc1cc(C)c(Oc2nc3c(cc2C(=O)NS(=O)(=O)c2ccc[nH]c2=O)CCC(C)(C)C3)c(C)c1` [Compound 1199, 7,7-dimethyl-N-[(2-oxo-1H-pyridin-3-yl)sulfonyl]-2-(2,4,6-trimethylphenoxy)-6,8-dihydro-5H-quinoline-3-carboxamide], the EC30 result is “++ (“++” means between 3 uM and 10 uM)”.

Turning to `CCOc1cccc2c1CN(Cc1c(C)cc(C)cc1C)C2(C)C(=O)NS(=O)(=O)c1cccc2[nH]ccc12` (stereo not drawn) [Compound 1666, 4-ethoxy-N-(1H-indol-4-ylsulfonyl)-1-methyl-2-[(2,4,6-trimethylphenyl)methyl]isoindoline-1-carboxamide], the EC30 entry is reported as “+++ (“+++” means <3 uM)”.

As for `CC(C)COc1cc(F)cc(-c2ccc(C(=O)NS(=O)(=O)c3ccn[nH]3)c(N3CCC[C@@H](c4ccccc4)C3)n2)c1` [Compound 912, 6-(3-fluoro-5-isobutoxy-phenyl)-2-[(3S)-3-phenyl-1-piperidyl]-N-(1H-pyrazol-5-ylsulfonyl)pyridine-3-carboxamide], the EC30 result is listed as “+++ (“+++” means <3 uM)”.

Consider `CC(C)COc1cc(F)cc(-c2ccc(C(=O)NS(=O)(=O)c3cccc(N)n3)c(NCC3(CC(C)(C)O)CC3)n2)c1` [Compound 1723, N-[(6-amino-2-pyridyl)sulfonyl]-6-(3-fluoro-5-isobutoxy-phenyl)-2-[[1-(2-hydroxy-2-methyl-propyl)cyclopropyl]methylamino]pyridine-3-carboxamide], for which the EC30 result is reported as “+++ (“+++” means <3 uM)”.

Consider `CC(C)COc1cc(F)cc(-c2ccc(C(=O)NS(=O)(=O)c3ccccc3)c(N3C[C@@H](C)CC3(C)C)n2)c1` [Compound 1356, N-(benzenesulfonyl)-6-(3-fluoro-5-isobutoxy-phenyl)-2-[(4S)-2,2,4-trimethylpyrrolidin-1-yl]pyridine-3-carboxamide], for which the EC30 entry is recorded as “+++ (“+++” means <3 uM)”.

For `CC1CN(c2ncccc2C(=O)NS(=O)(=O)c2cccc(NCc3ccccc3)n2)C(C)(C)C1` (stereo not drawn) [Compound 1938, N—[[6-(benzylamino)-2-pyridyl]sulfonyl]-2-(2,2,4-trimethylpyrrolidin-1-yl)pyridine-3-carboxamide], the EC30 entry is recorded as “+++ (“+++” means <3 uM)”.

`CCCC/C=C/c1cc(C(=O)NS(=O)(=O)c2cccc(N)n2)c(N2C[C@@H](C)CC2(C)C)nc1C(C)(C)C` [Compound 1377, N-[(6-amino-2-pyridyl)sulfonyl]-6-tert-butyl-5-[(E)-hex-1-enyl]-2-[(4S)-2,2,4-trimethylpyrrolidin-1-yl]pyridine-3-carboxamide]: the EC30 result was “+++ (“+++” means <3 uM)”.

`CCc1cccc(-c2ccc(C(=O)NS(=O)(=O)c3cccc(N)n3)c(Oc3c(C)cc(C)cc3C)n2)c1` [Compound 1118, N-[(6-amino-2-pyridyl)sulfonyl]-6-(3-ethylphenyl)-2-(2,4,6-trimethylphenoxy)pyridine-3-carboxamide]: the EC30 entry was “+++ (“+++” means <3 uM)”.

For the compound `Cc1cc(C)c(CN2Cc3ccccc3C2(C)C(=O)NS(=O)(=O)c2cccc(N)c2)c(C)c1` (stereo not drawn) [Compound 1273, N-(3-aminophenyl)sulfonyl-1-methyl-2-[(2,4,6-trimethylphenyl)methyl]isoindoline-1-carboxamide], the EC30 result is “+++ (“+++” means <3 uM)”.
